Experimental data: patent US9073974B2, “RGD-containing cyclic peptides” (The Regents of the University of California, priority 2009, dated 2015)
pIC50: −log10 of the molar value. Numbered stars: 1 amine (or outer) side, 2 acyl side, 3 side chain; on linkers, the order of the positions; unused ones are H or OH. Bridge positions count the residues as written; N and C are the ends. Square brackets hold non-standard residues; d marks the D form. Peptide text beside a SMILES is read from it. * marks the point of attachment. Benzoyl(4-NO2) = O=C(c1ccc([N+](=O)[O-])cc1)*; Pro(5R-Ph) = O=C(O)[C@@H]1CC[C@H](c2ccccc2)N1; Benzoyl(3,5-(OH)2) = O=C(c1cc(O)cc(O)c1)*; Phenylacetyl(4-Cl) = O=C(Cc1ccc(Cl)cc1)*; NH(CH2CH2O)2CH2CH2NH2 = NCCOCCOCCN*; X2 = O=C(C1(N[*:1])CCC(O)CC1)[*:2]; Hydrocinnamoyl = O=C(CCc1ccccc1)*; dPen = CC(C)(S)[C@@H](N)C(=O)O; Agp = N=C(N)NC[C@H](N)C(=O)O; Suc = O=C(CCC(=O)[*:2])[*:1]; Nicotinoyl = O=C(c1cccnc1)*; X4 = O=C(c1ccc(Br)o1)*; Sar = CNCC(=O)O

Biological target: αvβ3 integrin (Homo sapiens, UniProt P05106+P06756)
Experiment: Inhibition of biotinylated LXW7 binding to αvβ3-K562 cells (flow cytometry)
Parameters: expressed in transfected cells; host or cells: K562 (gift of Dr. Yoshikazu Takada, UC Davis)
Conditions: LXW9-92: inhibiting the binding of biotinylated LXW7 against αvβ3-K562 cells
Description: The apparent IC50 were calculated using Graph Prism software (≦www.graphpad.com≧).
The samples were analyzed with Coulter XL-MCL flow cytometry. The histogram and mean fluorescence intensity (MFI) were determined. The apparent Kd, IC50 were calculated using Graph Prism software (≦www.graphpad.com≧).

Sequence of αvβ3 integrin (P06756 31-889 limits assumed): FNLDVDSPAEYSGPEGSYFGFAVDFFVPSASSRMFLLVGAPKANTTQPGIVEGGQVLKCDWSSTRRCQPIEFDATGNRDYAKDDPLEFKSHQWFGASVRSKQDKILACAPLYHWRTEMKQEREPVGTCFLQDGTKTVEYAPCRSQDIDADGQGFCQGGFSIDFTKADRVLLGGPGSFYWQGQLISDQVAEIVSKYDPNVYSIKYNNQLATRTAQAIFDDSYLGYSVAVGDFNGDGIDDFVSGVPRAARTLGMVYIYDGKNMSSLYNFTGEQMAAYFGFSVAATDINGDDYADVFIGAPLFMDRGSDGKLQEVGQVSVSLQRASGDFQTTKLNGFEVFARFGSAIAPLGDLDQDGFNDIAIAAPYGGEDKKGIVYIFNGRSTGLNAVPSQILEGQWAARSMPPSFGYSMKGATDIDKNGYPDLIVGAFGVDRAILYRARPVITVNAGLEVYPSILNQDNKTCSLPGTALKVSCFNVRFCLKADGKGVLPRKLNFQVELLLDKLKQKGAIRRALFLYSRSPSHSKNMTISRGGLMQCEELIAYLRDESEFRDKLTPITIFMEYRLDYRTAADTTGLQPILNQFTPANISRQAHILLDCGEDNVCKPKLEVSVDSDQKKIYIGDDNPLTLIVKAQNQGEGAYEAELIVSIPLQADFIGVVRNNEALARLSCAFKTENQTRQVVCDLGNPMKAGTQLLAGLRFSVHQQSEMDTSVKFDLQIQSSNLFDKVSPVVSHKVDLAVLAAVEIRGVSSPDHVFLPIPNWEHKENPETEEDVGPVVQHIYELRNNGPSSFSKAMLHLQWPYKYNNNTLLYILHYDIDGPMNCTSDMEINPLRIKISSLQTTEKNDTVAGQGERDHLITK
Sequence of αvβ3 integrin (P06756 891-1048 partner limits assumed): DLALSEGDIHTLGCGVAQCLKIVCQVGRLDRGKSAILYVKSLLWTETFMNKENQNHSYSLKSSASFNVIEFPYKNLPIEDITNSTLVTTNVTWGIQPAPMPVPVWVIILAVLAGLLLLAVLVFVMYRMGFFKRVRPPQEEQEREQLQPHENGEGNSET
Sequence of αvβ3 integrin (P05106 27-788): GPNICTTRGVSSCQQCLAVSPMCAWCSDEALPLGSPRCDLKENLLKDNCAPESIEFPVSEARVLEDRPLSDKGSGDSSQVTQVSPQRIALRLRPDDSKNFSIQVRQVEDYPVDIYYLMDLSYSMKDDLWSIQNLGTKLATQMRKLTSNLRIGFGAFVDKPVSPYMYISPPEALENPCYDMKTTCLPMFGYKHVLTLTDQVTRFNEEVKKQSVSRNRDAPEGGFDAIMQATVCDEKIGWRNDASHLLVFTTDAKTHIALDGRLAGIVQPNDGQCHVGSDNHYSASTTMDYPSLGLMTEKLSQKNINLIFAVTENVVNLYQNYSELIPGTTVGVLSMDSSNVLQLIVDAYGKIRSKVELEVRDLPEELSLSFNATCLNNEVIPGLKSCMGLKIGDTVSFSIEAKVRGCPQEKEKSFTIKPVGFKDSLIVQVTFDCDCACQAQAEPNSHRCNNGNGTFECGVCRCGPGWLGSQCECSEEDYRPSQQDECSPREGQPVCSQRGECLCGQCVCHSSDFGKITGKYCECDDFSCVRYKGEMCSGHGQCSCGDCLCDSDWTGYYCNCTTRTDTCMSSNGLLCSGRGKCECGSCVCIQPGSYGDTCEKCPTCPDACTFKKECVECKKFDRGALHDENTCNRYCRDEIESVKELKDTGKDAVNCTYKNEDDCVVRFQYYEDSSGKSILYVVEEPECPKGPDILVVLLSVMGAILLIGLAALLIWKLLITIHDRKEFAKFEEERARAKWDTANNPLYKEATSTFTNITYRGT

| SMILES | pIC50 (class symbols) | pIC50 (LXW7 as internal reference) |
| --- | --- | --- |
| CC(C)[C@H]1NC(=O)[C@@H](CC(=O)O)NC(=O)[C@H](CC(=O)O)NC(=O)CNC(=O)[C@H](CCCNC(=N)N)NC(=O)CNC(=O)[C@H](NC(=O)Cc2ccc(Cl)cc2)CSSC[C@H](C(N)=O)NC1=O [LXW81, p-chlorophenyl acetyl-cGRGDdvc] ({Phenylacetyl(4-Cl)}-[dC]GRGD[dD][dV][dC]-NH2; disulfide 1-8) | 5.00 to 6.00 | – |
| CC(C)[C@H]1NC(=O)[C@@H](CC(=O)O)NC(=O)[C@H](CC(=O)O)NC(=O)CNC(=O)[C@H](CCCNC(=N)N)NC(=O)CNC(=O)[C@H](NC(=O)c2cccnc2)CSSC[C@H](C(N)=O)NC1=O [LXW92, nicotinyl-cGRGDdvc] (Nicotinoyl-[dC]GRGD[dD][dV][dC]-NH2; disulfide 1-8) | 5.00 to 6.00 | – |
| CC(C)[C@H]1NC(=O)[C@@H](CC(=O)O)NC(=O)[C@H](CC(=O)O)NC(=O)CNC(=O)[C@H](CCCNC(=N)N)NC(=O)CNC(=O)[C@@H](N)CSSC[C@H](C(N)=O)NC1=O [LXW9, CGRGDdvc] (H-CGRGD[dD][dV][dC]-NH2; disulfide 1-8) | 5.00 to 6.00 | – |
| N=C(N)NCCC[C@@H]1NC(=O)CNC(=O)[C@H](N)CSSC[C@H](C(N)=O)NC(=O)[C@@H]2CC[C@H](c3ccccc3)N2C(=O)[C@@H](CCC(=O)O)NC(=O)[C@H](CC(=O)O)NC(=O)CNC1=O [LXW71, cGRGDe-Ppca-c] (H-[dC]GRGD[dE][Pro(5R-Ph)][dC]-NH2; disulfide 1-8) | 5.00 to 6.00 | – |
| CC(C)[C@H]1NC(=O)[C@@H](CC(=O)O)NC(=O)[C@H](CC(=O)O)NC(=O)CNC(=O)[C@H](CCCNC(=N)N)NC(=O)CNC(=O)[C@H](N)CSSC[C@@H](C(N)=O)NC1=O [LXW10, cGRGDdvC] (H-[dC]GRGD[dD][dV]C-NH2; disulfide 1-8) | 5.00 to 6.00 | – |
| CC(C)[C@H]1NC(=O)[C@@H](CC(=O)O)NC(=O)[C@H](CC(=O)O)NC(=O)CNC(=O)[C@H](CCCNC(=N)N)NC(=O)CNC(=O)[C@@H](N)CSSC[C@@H](C(N)=O)NC1=O [LXW11, CGRGDdvC] (H-CGRGD[dD][dV]C-NH2; disulfide 1-8) | – | < 4.70 |
| CC(C)[C@H]1NC(=O)[C@@H](CC(=O)O)NC(=O)[C@H](CC(=O)O)NC(=O)CNC(=O)[C@H](CCCNC(=N)N)NC(=O)[C@@H](C)NC(=O)[C@H](N)CSSC[C@H](C(N)=O)NC1=O [LXW13, caRGDdvc] (H-[dC][dA]RGD[dD][dV][dC]-NH2; disulfide 1-8) | 5.00 to 6.00 | – |
| C=CC[C@H]1NC(=O)[C@@H](CC(=O)O)NC(=O)[C@H](CC(=O)O)NC(=O)CNC(=O)[C@H](CCCNC(=N)N)NC(=O)CNC(=O)[C@H](N)CSSC[C@@H](C(N)=O)NC1=O [LXW34, cGRGDd-DAgl-C] | – | < 4.70 |
| CN1CC(=O)N[C@@H](CCCNC(=N)N)C(=O)NCC(=O)N[C@@H](CC(=O)O)C(=O)N[C@H](CC(=O)O)C(=O)NC2(CCOCC2)C(=O)N[C@H](C(N)=O)CSSC[C@@H](N)C1=O [LXY38, c-Sar-RGDd-Actp-C] | – | < 4.70 |
| CC(C)[C@H]1NC(=O)[C@@H](CC(=O)O)NC(=O)[C@H](CC(=O)O)NC(=O)CNC(=O)[C@H](CCCNC(=N)N)NC(=O)CNC(=O)[C@H](N)C(C)(C)SSC(C)(C)[C@H](C(N)=O)NC1=O [LXW19, DPen-GRGDdv-DPen] (H-[dPen]GRGD[dD][dV][dPen]-NH2; disulfide 1-8) | 5.00 to 6.00 | – |
| C=CC[C@H]1NC(=O)[C@@H](CC(=O)O)NC(=O)[C@H](CC(=O)O)NC(=O)CNC(=O)[C@H](CCCNC(=N)N)NC(=O)CNC(=O)[C@H](N)CSSC[C@H](C(N)=O)NC1=O [LWX16, cGRGDd-DAgl-c] | 5.00 to 6.00 | – |
| CC(C)[C@H]1NC(=O)[C@@H](CC(=O)O)NC(=O)[C@H](CC(=O)O)NC(=O)CNC(=O)[C@H](CCCNC(=N)N)NC(=O)CNC(=O)[C@H](NC(=O)c2cc(O)cc(O)c2)CSSC[C@H](C(N)=O)NC1=O [LXW83, 3,5-dihydroxy beznoyl-cGRGDdvc] ({Benzoyl(3,5-(OH)2)}-[dC]GRGD[dD][dV][dC]-NH2; disulfide 1-8) | > 6.00 | – |
| CC(C)[C@H]1NC(=O)[C@@H](CC(=O)O)NC(=O)[C@H](CC(=O)O)NC(=O)CNC(=O)[C@H](CCCNC(=N)N)NC(=O)CNC(=O)[C@H](NC(=O)CCC(=O)NCCOCCOCCN)CSSC[C@H](C(N)=O)NC1=O [LXW57, (Ebes)-cGRGDdvc] ({NH(CH2CH2O)2CH2CH2NH2-Suc}-[dC]GRGD[dD][dV][dC]-NH2; disulfide 1-8) | > 6.00 | – |
| CC(C)[C@H]1NC(=O)[C@@H](CC(=O)O)NC(=O)[C@H](CC(=O)O)NC(=O)CNC(=O)[C@H](CCCNC(=N)N)NC(=O)CNC(=O)[C@H](N)CSSC(C)(C)[C@H](C(N)=O)NC1=O [LXW21, cGRGDdv-DPen] (H-[dC]GRGD[dD][dV][dPen]-NH2; disulfide 1-8) | 5.00 to 6.00 | – |
| CC(C)[C@H]1NC(=O)[C@@H](CC(=O)O)NC(=O)[C@H](CC(=O)O)NC(=O)CNC(=O)[C@H](CCCNC(=N)N)NC(=O)CNC(=O)[C@H](NC(=O)c2ccc([N+](=O)[O-])cc2)CSSC[C@H](C(N)=O)NC1=O [LXW82, 4-nitrobezoyl-cGRGDdvc] ({Benzoyl(4-NO2)}-[dC]GRGD[dD][dV][dC]-NH2; disulfide 1-8) | 5.00 to 6.00 | – |
| C#CC[C@H]1NC(=O)[C@@H](CC(=O)O)NC(=O)[C@H](CC(=O)O)NC(=O)CNC(=O)[C@H](CCCNC(=N)N)NC(=O)CN(C)C(=O)[C@@H](N)CSSC[C@@H](C(N)=O)NC1=O [LXW35, C-Sar-RGDd-DPra-C] | < 5.00 | – |

| SMILES | pIC50 (class symbols) | pIC50 (LXW7 as internal reference) |
| --- | --- | --- |
| CC[C@H]1NC(=O)[C@@H](CC(=O)O)NC(=O)[C@H](CC(=O)O)NC(=O)CNC(=O)[C@H](CCCNC(=N)N)NC(=O)CNC(=O)[C@H](N)CSSC[C@H](C(N)=O)NC1=O [LXW25, cGRGDd-DAbu-c] | > 6.00 | – |
| CC(C)[C@H]1NC(=O)[C@@H](CC(=O)O)NC(=O)[C@H](CC(=O)O)NC(=O)CNC(=O)[C@H](CCCNC(=N)N)NC(=O)CNC(=O)[C@H](NC(=O)c2ccc(Br)o2)CSSC[C@H](C(N)=O)NC1=O [LXW90, 5-bromo-2-furoyl-cGRGDdvc] (X4-[dC]GRGD[dD][dV][dC]-NH2; disulfide 1-8) | 5.00 to 6.00 | – |
| CN1CC(=O)N[C@@H](CCCNC(=N)N)C(=O)NCC(=O)N[C@@H](CC(=O)O)C(=O)N[C@H](CC(=O)O)C(=O)NC2(CCOCC2)C(=O)N[C@H](C(N)=O)CSSC[C@H](N)C1=O [LXW36, C-Sar-RGDd-Actp-C] | – | < 4.70 |
| C#CC[C@H]1NC(=O)[C@@H](CC(=O)O)NC(=O)[C@H](CC(=O)O)NC(=O)CNC(=O)[C@H](CCCNC(=N)N)NC(=O)CNC(=O)[C@H](N)CSSC[C@@H](C(N)=O)NC1=O [LXW40, cGRGDd-DPra-C] | 5.00 to 6.00 | – |
| CC(C)[C@H]1NC(=O)[C@@H](CC(=O)O)NC(=O)[C@H](CC(=O)O)NC(=O)CN(C)C(=O)[C@H](CCCNC(=N)N)NC(=O)CNC(=O)[C@H](N)CSSC[C@H](C(N)=O)NC1=O [LXW54, cGR-Sar-Ddvc] (H-[dC]GR[Sar]D[dD][dV][dC]-NH2; disulfide 1-8) | – | < 4.70 |
| CC(C)(C)[C@H]1NC(=O)[C@@H](CC(=O)O)NC(=O)[C@H](CC(=O)O)NC(=O)CNC(=O)[C@H](CCCNC(=N)N)NC(=O)CNC(=O)[C@H](N)CSSC[C@H](C(N)=O)NC1=O [LXW18, cGRGDd-DBug-c] | > 6.00 | – |
| CC(C)[C@H]1NC(=O)[C@@H](CC(=O)O)NC(=O)[C@H](CC(=O)O)NC(=O)CNC(=O)[C@H](CCCNC(=N)N)NC(=O)CNC(=O)[C@H](N)C(C)(C)SSC[C@H](C(N)=O)NC1=O [LXW20, DPen-GRGDdvc] (H-[dPen]GRGD[dD][dV][dC]-NH2; disulfide 1-8) | 5.00 to 6.00 | – |
| CC[C@@H](C)[C@H]1NC(=O)C2(CCC(O)CC2)NC(=O)[C@H](CC(=O)O)NC(=O)CNC(=O)[C@H](CCCNC(=N)N)NC(=O)CN(C)C(=O)[C@H](N)CSSC[C@H](C(N)=O)NC1=O (stereo partly shown) [LXW32, c-Sar-RGD-Ahch-i c] (H-[dC][Sar]RGD[X2][dI][dC]-NH2; disulfide 1-8) | – | < 4.70 |
| CC(C)[C@H]1NC(=O)[C@@H](CC(=O)O)NC(=O)[C@H](CC(=O)O)NC(=O)CNC(=O)[C@H](CCCNC(=N)N)NC(=O)CNC(=O)[C@H](NC(=O)CCc2ccccc2)CSSC[C@H](C(N)=O)NC1=O [LXW80, 3-phenyl propionyl-cGRGDdvc] (Hydrocinnamoyl-[dC]GRGD[dD][dV][dC]-NH2; disulfide 1-8) | > 6.00 | – |
| C#CC[C@H]1NC(=O)[C@@H](CC(=O)O)NC(=O)[C@H](CC(=O)O)NC(=O)CNC(=O)[C@H](CCCNC(=N)N)NC(=O)CNC(=O)[C@H](N)CSSC[C@H](C(N)=O)NC1=O [LWX17, cGRGDd-DPra-c] | 5.00 to 6.00 | – |
| N=C(N)NCCC[C@@H]1NC(=O)CNC(=O)[C@@H](N)CSSC[C@H](C(N)=O)NC(=O)[C@@H]2CC[C@H](c3ccccc3)N2C(=O)[C@@H](CCC(=O)O)NC(=O)[C@H](CC(=O)O)NC(=O)CNC1=O [LXW45, CGRGDe-Ppca-c] (H-CGRGD[dE][Pro(5R-Ph)][dC]-NH2; disulfide 1-8) | – | < 4.70 |
| CC(=O)N[C@@H]1CSSC[C@H](C(N)=O)NC(=O)[C@@H](C(C)C)NC(=O)[C@@H](CC(=O)O)NC(=O)[C@H](CC(=O)O)NC(=O)CNC(=O)[C@H](CCCNC(=N)N)NC(=O)CNC1=O [LXW12, Acetyl-cGRGDdvc] (Ac-[dC]GRGD[dD][dV][dC]-NH2; disulfide 1-8) | > 6.00 | – |
| CC[C@@H](C)[C@H]1NC(=O)[C@@H](CC(=O)O)NC(=O)[C@H](CC(=O)O)NC(=O)CNC(=O)[C@H](CCCNC(=N)N)NC(=O)CNC(=O)[C@H](N)CSSC[C@H](C(N)=O)NC1=O [LXW26, cGRGDdic] (H-[dC]GRGD[dD][dI][dC]-NH2; disulfide 1-8) | 5.00 to 6.00 | – |
| N=C(N)NCCC[C@@H]1NC(=O)CNC(=O)[C@H](N)CSSC[C@H](C(N)=O)NC(=O)[C@@H](Cc2cccs2)NC(=O)[C@@H](CC(=O)O)NC(=O)[C@H](CC(=O)O)NC(=O)CNC1=O [LXW67, cGRGDd-D2Thi-c] | > 6.00 | – |
| CC(C)[C@H]1NC(=O)[C@@H](CC(=O)O)NC(=O)[C@H](CC(=O)O)NC(=O)CNC(=O)[C@H](CNC(=N)N)NC(=O)CNC(=O)[C@H](N)CSSC[C@H](C(N)=O)NC1=O [LXW58, cG-Agp-GDdvc] (H-[dC]G[Agp]GD[dD][dV][dC]-NH2; disulfide 1-8) | – | < 4.70 |
